Among the test systems are HOP-62 NSCLC; U251 CNS; HL-60(TB) leukemia; HOP-92 NSCLC; RXF 393 renal; ACHN renal; DLD-1 colon; NCI-H522 lung; DMS 273 small cell lung; SNB-19 CNS.
Holding throughout (assay): NCI tumour cell line growth inhibition, 48 h

Molecules are shown by their SMILES. Values joined by “and” are separate entries in the source; they are usually repeats but may differ in a detail not shown here. Identical values can stand only once.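 Interpolation was linear, between the two tested concentrations surrounding the appropriate level; five concentrations were tested over 48 hours in 96-well plates. GI50 marks 50% less growth. Definition used: TGI = concentration required for complete inhibition of growth.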

Take `C=Cc1cncc(C#N)c1CCc1c(C#N)cncc1C=C`: the GI50 was > 100 µM with HOP-62 NSCLC; > 100 µM in the assay with U251 CNS; > 100 µM in the assay on HL-60(TB) leukemia; > 10 µM in the assay with RXF 393 renal; > 100 µM with ACHN renal; > 100000 nM in the assay on DLD-1 colon. Besides, the GI50 with NCI-H522 lung, in the assay on DMS 273 small cell lung and in the assay on SNB-19 CNS was > 100 µM in each case. In addition, the TGI is > 100 µM in the assay with HOP-62 NSCLC; > 100 µM in the assay with U251 CNS; > 100 µM in the assay on HL-60(TB) leukemia; > 10 µM with HOP-92 NSCLC; > 100 µM in the assay on RXF 393 renal; > 100 µM in the assay with ACHN renal. Moreover, the TGI in the assay on DLD-1 colon, with NCI-H522 lung, with DMS 273 small cell lung and with SNB-19 CNS was > 100 µM throughout.
For `O=C1C=CC(=O)C2=C1[C@@H](O)C1CC=CC3C(=O)O[C@@H]2C31` (stereo partly specified), the TGI is > 100 µM in the assay with HOP-62 NSCLC; > 100 µM in the assay on U251 CNS; 40.4 µM in the assay with HL-60(TB) leukemia; 45.4 µM with HOP-92 NSCLC; 33.9 µM with RXF 393 renal; > 69.9 µM with ACHN renal. The TGI with DLD-1 colon is 37.9 µM; in the assay on NCI-H522 lung, 34.8 µM; in the assay with DMS 273 small cell lung, 49.4 µM; with SNB-19 CNS, > 100 µM.
In the case of `O=C(O)CC[C@H](NC(=O)c1ccc(-n2nc3ccc(O)cc3nc2=O)cc1)C(=O)O`, the TGI in the assay on HOP-62 NSCLC, in the assay on U251 CNS, in the assay with HL-60(TB) leukemia, in the assay with HOP-92 NSCLC, in the assay with RXF 393 renal and with ACHN renal was > 100 µM throughout. In addition, the TGI with DLD-1 colon, in the assay on NCI-H522 lung, in the assay with DMS 273 small cell lung and with SNB-19 CNS was > 100 µM throughout.
`CC(C)(C)C(=O)OCC1C(=O)OCC1C(=O)N1Cc2cc3ccccc3nc2C1` (stereo unspecified): the TGI came out at 22 µM in the assay with HOP-62 NSCLC; 20.6 µM in the assay with U251 CNS; 3.13 µM in the assay with HL-60(TB) leukemia; 3.69 µM in the assay on HOP-92 NSCLC; 3.27 µM with RXF 393 renal; 7.54 µM in the assay with ACHN renal. Besides, the TGI was determined as 3.15 µM in the assay on DLD-1 colon, 2.2 µM in the assay on NCI-H522 lung, 12.7 µM in the assay on DMS 273 small cell lung and 38.6 µM with SNB-19 CNS.
`CC[C@@]1(O)C(=O)OCc2c1cc1n(c2=O)Cc2cc3cc4c(cc3nc2-1)OCO4`: the TGI in the assay with U251 CNS is 0.0171 µM and 0.0613 µM; in the assay on HOP-92 NSCLC it was 0.166 µM and 0.051 µM; in the assay on RXF 393 renal, 0.0831 µM; in the assay on DLD-1 colon, > 100 µM; in the assay on NCI-H522 lung it was 0.113 µM; with DMS 273 small cell lung it was 0.195 µM. The GI50 with RXF 393 renal was < 0.0267 µM; with DLD-1 colon, 112 nM.
For `O=C1CCCCC1S(=O)(=O)c1ccccc1` (stereo unspecified), the TGI in the assay with HOP-62 NSCLC, with U251 CNS, with HL-60(TB) leukemia, in the assay on HOP-92 NSCLC, with RXF 393 renal and with ACHN renal was > 100 µM throughout. In addition, the TGI in the assay with DLD-1 colon, in the assay with NCI-H522 lung, in the assay on DMS 273 small cell lung and with SNB-19 CNS was > 100 µM throughout.
For the compound `O=C1/C(=C/c2ccccc2)CN(C(=O)CCN2CCOCC2)C/C1=C\c1ccccc1`, the TGI in the assay with HOP-62 NSCLC was 17.3 µM; in the assay with U251 CNS, 3.52 µM; in the assay with HL-60(TB) leukemia it was 6.51 µM; with HOP-92 NSCLC, 22.2 µM; with RXF 393 renal, 8.87 µM; with ACHN renal it was 11.3 µM. Moreover, the TGI was determined as 4.28 µM with DLD-1 colon, 4.46 µM in the assay with NCI-H522 lung, 4.04 µM in the assay on DMS 273 small cell lung and 14.5 µM with SNB-19 CNS.
`O=S(=O)(/C=C/c1ccc(F)cc1)Cc1ccc(CS(=O)(=O)/C=C/c2ccc(F)cc2)cc1`: the TGI in the assay on HOP-62 NSCLC, with U251 CNS, in the assay on HL-60(TB) leukemia, with HOP-92 NSCLC, in the assay with RXF 393 renal and with ACHN renal was > 100 µM in each case. Also, the TGI with DLD-1 colon, with NCI-H522 lung, in the assay with DMS 273 small cell lung and in the assay on SNB-19 CNS was > 100 µM in each case.
Regarding `COc1ccc(/C=C/c2cc(OC)c(OC)c(OC)c2)cc1`, the TGI in the assay on HOP-62 NSCLC is 60.1 µM; in the assay on U251 CNS it was 11.7 µM; in the assay with HOP-92 NSCLC, > 100 µM; in the assay with RXF 393 renal it was 2.62 µM; in the assay on ACHN renal it was > 100 µM; in the assay on DLD-1 colon, > 100 µM. For the same compound, the TGI in the assay on NCI-H522 lung is 40.9 µM; in the assay with DMS 273 small cell lung, > 100 µM; with SNB-19 CNS, > 100 µM. Moreover, the GI50 with NCI-H522 lung was 14.1 µM.
In the case of `CC(CN(C)C)/C(=N\Nc1ccccc1)c1ccccc1` (stereo unspecified), the TGI was 12 µM in the assay with HOP-62 NSCLC; 5.88 µM in the assay on U251 CNS; 8.34 µM in the assay on HL-60(TB) leukemia; 65.4 µM in the assay on RXF 393 renal; 2.08 µM in the assay on ACHN renal; > 100 µM with DLD-1 colon. The TGI with NCI-H522 lung came out at 25.1 µM; in the assay on DMS 273 small cell lung, 12.1 µM; in the assay on SNB-19 CNS it was 34.4 µM.
As to `CCOc1cc2c(C(=O)CC)c(O)ccc2o1`, the TGI in the assay on HOP-62 NSCLC is > 100 µM; in the assay on U251 CNS, > 100 µM; in the assay on HL-60(TB) leukemia it was 23 µM; in the assay with HOP-92 NSCLC, > 100 µM; in the assay on RXF 393 renal, > 95.7 µM; in the assay with ACHN renal it was > 100 µM. Also, the TGI was > 43.2 µM with DLD-1 colon, > 100 µM in the assay on NCI-H522 lung, > 100 µM in the assay with DMS 273 small cell lung and > 100 µM with SNB-19 CNS.
